Results: patent US10988774B2, “System for site-specific modification of ALS gene using CRISPR-Cas9 system for production of herbicide-resistant rice and use of same” (Institute of Crop Sciences, Chinese Academy of Agricultural …, priority 2015, dated 2021)

Experiments:
wild-type rice = experiment: Resistance to herbicide Bispyribac-sodium, spray test, wild-type rice; assay type: in vivo, Nipponbare rice; settings: spray 100 μM, 36 days after spraying
Procedure: (§1) The wild-type rice, and the T0 site-specifically modified rice of the Cas9-arm donor group with successful homologous recombination at the codons of both the 548th and 627th amino acids of ALS as obtained in step I were sprayed with Bispyribac-sodium in a concentration of 100 μM, and 30-50 days thereafter, the growth states of the plants were observed.

[1] = system: T0 site-specifically modified rice of the Cas9-arm donor group (ALS W548L, S627I); experiment: Resistance to herbicide Bispyribac-sodium, spray test, ALS site-specifically modified rice; assay type: in vivo, Nipponbare rice; settings: homologous recombinant rice, ALS W548L and S627I; spray 100 μM; 36 days after spraying
Procedure: as §1

## COc1cc(OC)nc(Oc2cccc(Oc3nc(OC)cc(OC)n3)c2C(=O)O)n1 [Bispyribac-sodium]
wild-type rice
  growth state of the plants after spraying: withered
[1]
  growth state of the plants after spraying: normal growth
